Test results taken from USRE46943E1, “Radioprotector compounds and methods” (PETER MACCALLUM CANCER INSTITUTE, priority 2010, dated 2018).
Read-outs that look alike come from different tables or passages of the source.

Legend:
[1] = system: transformed human keratinocyte cell line (FEP 1811); assay: Clonogenic survival cell culture assay for radioprotective activity (12 Gy 137Cs gamma irradiation); format: cell-based
Text: PF is defined as a ratio of survival at maximum protection Sm and survival after irradiation only So: PF=Sm/So. DMF is defined as a ratio of doses that result in survival level of Sm in the presence Dp and the absence Dc of radioprotector: DMF=Dp/Dc. DMF10 is define in a similar way except that instead of Sm a survival at 10 microM of radioprotector is used.
PF (Protection Factor) is defined as a ratio of survival at maximum protection Sm and survival after irradiation only So:PF=Sm/So. DMF (Dose Modification Factor) is defined as a ratio of doses that result in survival level of Sm in the presence (Dp) and the absence (Dc) of radioprotector: DMF=Dp/Dc. DMF10 is defined in a similar way except that instead of Sm a survival at 10 microM of radioprotector is used.
(§1) • i. […] In appropriate cases, tautomers are drawn to illustrate potential hydrogen-bond donating configurations into the minor groove of DNA. • ii. 2-Amino-4-(5′-(4″-methylpiperazin-1″-yl)benzimidazol-2′-yl)aniline was prepared by hydrogenation of 4-(5′-(4″-methylpiperazin-1″-yl)benzimidazol-2′-yl)-2-nitroaniline, using a modification of the method of Kelly et al, Aust. […] 2-Amino-4-(5′-(piperidin-1″-yl)benzimidazol-2′-yl)aniline was prepared by hydrogenation of 2-nitro-4-(5′-(piperidin-1″-yl)benzimidazol-2′-yl)aniline, using a modification of the method of Kelly et al, Aust. […] Ethyl 4-amino-3-nitrobenzenecarboximidate hydrochloride was prepared by reaction of 4-amino-3-nitrobenzonitrile with dry HCl gas in ethanol, using the method of Kelly et al, Aust. […] 5-(4′-Methylpiperazin-1′-yl)-2-nitroaniline was prepared using a modification of the method of Kelly et al, Aust. […] The following chemicals were obtained from the chemical suppliers indicated: 2-furaldehyde (Aldrich), 2-pyridinecarboxaldehyde (Aldrich), 3-fluoropyridine-2-carbaldehyde (Maybridge), 3-trifluoromethylpyridine-2-carboxaldehyde (Apollo Scientific), 6-methyl-2-pyridinecarboxaldehyde (Matrix Scientific), 5-methylpyridine-2-carbonitrile (Apollo Scientific), 4-methyl-2-pyridinecarbonitrile (Aldrich), 4-chloro-2-pyridinecarbonitrile (Aldrich), 4-methoxypicolinonitrile (Combi-Blocks), pyrazinecarbonitrile (Aldrich), 2-quinolinecarbonitrile (Aldrich), 3-isoquinolinecarbonitrile (Aldrich), 1-isoquinolinecarboxylic acid (Aldrich), indazole-3-carboxylic acid (Aldrich), 2-hydroxynicotinic acid (Aldrich), 4-hydroxypiperidine (Aldrich), 1-methylhomopiperazine (Aldrich), 3-hydroxypiperidine (Aldrich), 4-(N-BOC-amino)piperidine (Aldrich), 4-methoxypiperidine (Acros), 4-methyl-3-nitrobenzonitrile (Aldrich), 5-chloro-2-nitroaniline (Aldrich), 2-cyanopyridine (Aldrich), methyl 4-amino-2-methoxybenzoic acid (Aldrich), 4-(trifluoromethyl)-2-pyridinecarbonitrile (Matrix Scientific), cis-2,6-dimethylmorphoiline (Acros), 5-(trifluoromethyl)-2-pyridinecarbonitrile (Advanced Chemical Intermediates) and 5-fluoro-2-pyridinecarbonitrile (Advanced Chemical Intermediates). • ix. […] Melting points were determined using an Electrothermal melting point apparatus, and are uncorrected. […] The abbreviations s for singlet, d for doublet, t for triplet, q for quartet, br for broad and m for muitiplet were used in the assignments of multiplicity. A value approximating the centre of a multiplet is quoted. […] The addition of a few drops of acetic acid to methanol-d4 solutions was used to enhance solubility for the acquisition of ^13C nmr spectra. Mass spectra were recorded on a Micromass Quattro II mass spectrometer and accurate mass analyses were carried out by the School of Chemistry at the University of Melbourne on a Finnigan LTQ-FT model high resolution mass spectrometer. Thin layer chromatography (TLC) was carried out using Merck silica gel 60 F254 aluminium sheets or Merck neutral aluminium oxide 150 F254 sheets. Flash column chromatography was carried out using Ajax silica gel 230-400 mesh. • xi.

[2] = system: transformed human keratinocyte cell line (FEP 1811); assay: Clonogenic survival cell culture assay for cytotoxicity; format: cell-based; conditions: un-irradiated keratinocytes, one hour drug exposure, colonies counted after eight days, read-out: C50 (concentration of radioprotector that results in 50% clonogenic survival)
Procedure: as §1, with “xi. […] The details are described in detail in Martin et al (4) (the disclosure of which is included herein in its entirety by way of reference), but briefly, mid-log phase monolayer cultures are incubated with various concentrations of the test drugs for one hour, after which the monolayers are washed and dispersed into single cell suspensions using pronase, and finally appropriate numbers of cells are dispensed into Petri dishes. Colonies are counted after eight days incubation. […] The irradiation (with a dose rate of 0.6 Gy per minute) is started 30 minutes after addition of the test drug. After completion of irradiation, incubation of cultures is continued until the total time of exposure to the drug reaches 60 minutes. Cultures are then washed and plated for clonogenic survival as described for the cytotoxicity experiments.” for “xi.”

[3] = 12 Gy, 10 microM radioprotector
[4] = 12 Gy, DMF=Dp/Dc at survival level Sm
[5] = 12 Gy, survival at maximum protection vs irradiation only
[6] = Homo sapiens, Keratinocyte, light or radiation study

Compound	DMF10 (dose modification factor at a concentration of 10 microM of radioprotector) [1, 3]	DMFm (dose modification factor at maximum protection) [1, 4]	PF (protection factor = Sm/So) [1, 5]	IC50 [2, 6]	IC50 [2]	DMF10 (dose modification factor at a concentration of 10 microM of radioprotector) [1]	DMFm (dose modification factor at maximum protection) [1]	PF (protection factor = Sm/So) [1]
C[C@@H]1CN(c2ccc3nc(-c4ccc5nc(-c6ccccn6)[nH]c5c4)[nH]c3c2)C[C@H](C)O1 [Example 52, 2-(5′-(5″-(cis-2′″,6′″-dimethylmorpholino)benzimidazol-2″-yl)benzimidazol-2′-yl)pyridine]	1.40	1.75	55.9	134 µM	–	–	–	–
CN1CCN(c2ccc3[nH]c(-c4ccc5[nH]c(-c6ccc7ccccc7n6)nc5c4)nc3c2)CC1 [Example 13, 2-(5′-(5″-(4′″-Methylpiperazin-1′″-yl)benzimidazol-2″-yl)benzimidazol-2′-yl)quinoline]	1.65	1.66	11.0	–	14 µM	–	–	–
CN(C)CCNc1ccc2[nH]c(-c3ccc4[nH]c(-c5ccccn5)nc4c3)nc2c1 [Example 43, 2-(5′-(5″-(2′″-(dimethylamino)ethylamino)benzimidazol-2″-yl)benzimidazol-2′-yl)pyridine]	1.28	1.61	11.2	–	118 µM	–	–	–
2-(5′-(5″-(2′″-(dimethylamino)ethoxy)benzimidazol-2″-yl)benzimidazol-2′-yl)pyridine [Example 44]	–	–	–	–	146 µM	1.50	1.88	17.6
CN(C)C(=O)N1CCN(c2ccc3[nH]c(-c4ccc5[nH]c(-c6ccccn6)nc5c4)nc3c2)CC1 [Example 37, 2-(5′-(5″-(4′″-(dimethylcarbamoyl)piperazin-1 ′″-yl)benzimidazol-2″-yl)benzimidazol-2′-yl)pyridine]	1.49	1.82	34.6	–	120 µM	–	–	–
2-(5′-(5″-(4′″-methylpiperazin-1′″-yl)-1H-indol-2″-yl)benzimidazol-2′-yl)pyridine [Example 53]	1.21	1.30	4.9	–	34.1 µM	–	–	–
c1ccc(-c2nc3ccc(-c4nc5ccc(N6CCSCC6)cc5[nH]4)cc3[nH]2)nc1 [Example 36, 2-(5′-(5″-thiomorpholinobenzimidazol-2″-yl)benzimidazol-2′-yl)pyridine]	1.49	1.53	16.4	31.3 µM	–	–	–	–
CN1CCN(c2ccc3nc(-c4ccc5nc(-c6ccc(F)cn6)[nH]c5c4)[nH]c3c2)CC1 [Example 47, 5-fluoro-2-(5′-(5″-(4′″-methylpiperazin-1″-yl)benzimidazol-2″-yl)benzimidazol-2′-yl)pyridine]	2.20	2.46	40.0	538 µM	–	–	–	–
CN(C)Nc1ccc2[nH]c(-c3ccc4[nH]c(-c5ccccn5)nc4c3)nc2c1 [Example 46, 2-(5′-(5″-(2′″,2′″-dimethylhydrazinyl)benzimidazol-2″-yl)benzimidazol-2′-yl)pyridine]	1.29	1.71	27.9	74.6 µM	–	–	–	–
COCCN1CCN(c2ccc3nc(-c4ccc5nc(-c6ccccn6)[nH]c5c4)[nH]c3c2)CC1 [Example 40, 2-(5′-(5″-(4′″-(2″″-methoxyethyl)piperazin-1′″-yl)benzimidazol-2″-yl)benzimidazol-2′-yl)pyridine]	1.77	198	20.2	80.7 µM	–	–	–	–
CCCCN1CCN(c2ccc3nc(-c4ccc5nc(-c6ccccn6)[nH]c5c4)[nH]c3c2)CC1 [Example 34, 2-(5′-(5″-(4′″-Butylpiperazin-1′″-yl)benzimidazol-2″-yl)benzimidazol-2′-yl)pyridine]	2.05	2.27	27.6	47 µM	–	–	–	–
Cc1cccc(-c2nc3ccc(-c4nc5ccc(N6CCN(C)CC6)cc5[nH]4)cc3[nH]2)n1 [Example 5, 6-Methyl-2-(5′-(5″-(4′″-methylpiperazin-1′″-yl)benzimidazol-2″-yl)benzimidazol-2′-yl)pyridine]	1.12	1.22	2.5	73.3 µM	–	–	–	–
